Test results from US10640524B2, “Prototype systems of theranostic biomarkers for in vivo molecular management of cancer” (EPOS-IASIS RESEARCH AND DEVELOPMENT, LTD, priority 2015, dated 2020).

Legend:
[1] = tested on: colon cancer cells (SW480); assay: Antiproliferative effect of A1F-D1F on colon cancer cells; assay type: cell-based; settings: for effect on cell viability with respect to the control (no drug): SW480, FIG. 3; for cell viability with respect to the control: human, 24 h
Experimental: The antiproliferative effect of the following compounds A1F, B1F, C1F and D1F were tested on colon cancer cells (SW480).

LoVo cells = assay: MTT colorimetric assay of antiproliferative efficacy; assay type: cell-based; settings: FIG. 4
SW620 cells = assay: Label-free temporal quantitative pharmacoproteomics; assay type: cell-based; settings: 0.04 mM
Experimental: The following experiment was performed to uncover new biomarkers of therapeutic response to the anticancer efficacy of the natural product based theranostic systems of the present invention.
In this experiment, SW620 cells were seeded in T75 flasks in DMEM, 10% FBS and 1% Penicillin/Streptomycin (all from Gibco). The cells were allowed to attach overnight. The following day the medium was removed and fresh medium containing 0.04 mM of either γT (γ-tocotrienol) or DCE-γT (diluted in absolute ethanol; final concentration of ethanol in the medium was 0.1% v/v). For control untreated cells, equal amount of fresh medium (containing ethanol at 0.1% v/v final concentration) was added.
SW620 cells were harvested after 24, 36 and 48 hrs of incubation with γT or DCE-γT. Briefly, the medium was removed and the cells were rinsed three times with PBS (without Ca, Mg) (Gibco). Fresh PBS was added and the cells were scraped off the flasks and collected in tubes. Collected cells were centrifuged at 1000 rpm (165 g) for 3 min and the supernatant was removed. The cell pellet was re-suspended in PBS and the centrifugation step was repeated. The supernatant was removed and the cells in minimal residual PBS were snap-freezed in liquid nitrogen. Once frozen the cells were stored in −80° C. until the proteomics analysis.
In terms of data analysis, a threshold of relative protein abundance equal or greater than 1.5-fold increase or decrease was set.

[2] = In vivo biodistribution by quantitative fluorescence imaging; design: species or system mouse
Experimental: A study of the in vivo biodistribution of a dicarboxylic ester of γ-Tocotrienol (DCE-γT) (enabled by customized histopathologic processing and quantitative fluorescence imaging) was performed. The study disclosed liver uptake as a function of time defining fluorescent chromanol esters as valued molecular probes. The structure of the dicarboxylic ester of γ-Tocotrienol (DCE-γT) is as follows:
Fluorescent signals of the DCE-γT and its free fluorescent metabolite, corresponding to the fluorescent ligand, peaked at 30 min and 3 hrs respectively, which was in agreement with in vitro findings. Colon uptake as a function of time confirms the mitochondrial predilection of the esterified chromanols and claims a new generation of optically active mitocans.

[3] = target: T1, EGFR membrane tyrosine kinase receptor (Homo sapiens, UniProt P00533); assay: FRET between EGFR-Luc and fluorescent ester in transfected cells; assay type: cell-based; settings: EGFR negative colon cancer cells transfected with EGFR-Luc plasmid; FIG. 5
T1 construct: expressed in transfected cells
Experimental: The fluorescent esters of the natural products disclosed herein can also be used as molecular probes for deciphering the interaction between the natural product and potential biomarkers in cancer cells. EGFR negative colon cancer cells were transiently transfected with a rationally designed EGFR-Luc plasmid and incubated with the DCE-γ-Tocotrienol ester. Bioluminescence of the Luciferase (donor) was assessed against the fluorescence signal of either the DCE-γ-Tocotrienol ester or the hydrolysis product (acceptor).

[4] = tested on: EGFR-Luc and Grb2-GFP interaction; assay: BRET of the interaction between EGFR-Luc and Grb2-GFP; assay type: cell-based

C=CC(=O)Nc1cc2c(Nc3ccc(Br)cc3)ncnc2cc1NC(=O)CCl [A1F]
effect on cell viability with respect to the control (no drug) [1]: reduce the viability of the cells | cell viability with respect to the control [1]: 20%

C=CC(=O)Nc1cc2c(Nc3ccc(C(C)C)cc3)ncnc2cc1NC(=O)CCl [B1F]
effect on cell viability with respect to the control (no drug) [1]: reduce the viability of the cells

C=CC(=O)Nc1cc2c(NCc3cccc4ccccc34)ncnc2cc1NC(=O)CCl [C1F]
effect on cell viability with respect to the control (no drug) [1]: reduce the viability of the cells | cell viability with respect to the control [1]: 20%

C=CC(=O)Nc1cc2c(Nc3ccc(C(C)(C)C)cc3)ncnc2cc1NC(=O)CCl [D1F]
effect on cell viability with respect to the control (no drug) [1]: reduce the viability of the cells | cell viability with respect to the control [1]: 20%

CC1(C)C(/C=C/C=C/C=C/C=C2\N(CCCCS(=O)(=O)[O-])c3ccc4ccccc4c3C2(C)C)=[N+](CCCCS(=O)(=O)[O-])c2ccc3ccccc3c21.[Na+] [free cyanine dye, indocyanine green, reference compound]
antiproliferative efficacy (LoVo cells): did not exhibit any antiproliferative effects

CCN1\C(=C/C=C/C=C/C=C/C2=[N+](CCCCCC(=O)NCC(=O)Nc3cccc(Nc4ncnc5ccc(NC(=O)COC)cc45)c3)c3ccc4ccccc4c3C2(C)C)C(C)(C)c2c1ccc1ccccc21.[Br-] [theranostic system]
antiproliferative efficacy (LoVo cells): significantly higher antiproliferative efficacy than free anilinoquinazoline

CC(C)=CCC/C(C)=C/CC/C(C)=C/CC[C@]1(C)CCc2cc(O)c(C)c(C)c2O1 [γT, γ-tocotrienol, reference compound]
decrease in protein level of histone H2B types (SW620 cells; versus untreated control): 1.8 fold | decrease in protein level of histone H3 types (SW620 cells; versus untreated control): at least 3.7 fold | decrease in protein level of hnRNPs (SW620 cells; versus untreated control): at least 2 fold | decrease in protein level of snRNPs (SW620 cells; versus untreated control): 1.8 fold | increase in histone H2A.Z (SW620 cells; versus untreated control): 24 fold | increase in level of RNA helicases (SW620 cells; versus untreated control): ≥ 1.9 fold | increase in level of certain snRNP components (SW620 cells; versus untreated control): ≥ 3 fold | increase in level of transcription regulators/co-factors (SW620 cells; versus untreated control): ≥ 2 fold

dicarboxylic ester of γ-Tocotrienol [DCE-γT]
time of peak fluorescent signal ([2]; in vivo biodistribution, liver uptake as a function of time): 30 min | blood brain barrier passage ([2]; uptake by mouse brain parenchyma cells): able to pass the blood brain barrier | number of proteins whose expression was elicited (SW620 cells; 24 hrs): 37 | number of proteins whose expression was elicited (SW620 cells; 36 hrs): 30 | number of proteins whose expression was elicited (SW620 cells; 48 hrs): 29 | decrease in DNA repair factors (SW620 cells; versus untreated control): 2 fold | decrease in protein level of histone H3 types (SW620 cells; versus untreated control): at least 6 fold | decrease in protein level of snRNPs (SW620 cells; versus untreated control): 2 fold | increase in histone H2A.Z (SW620 cells; versus untreated control): 23 fold | increase in histone H3 forms (SW620 cells; versus untreated control): ≥ 1.8 fold | FRET signal [3]: amplified FRET signal | activation within the EGFR axis [4]: neither the ester nor the hydrolysis products elicit any unwanted activation
